Assay results published in PubChem BioAssay (NCI).
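Each compound was tested at five concentrations against cells in 96-well plates for 48 hours. At the GI50, growth is halved. TGI denotes the concentration required for complete inhibition of growth.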

Experiments:
Test in all cases: NCI-60 cell line screen, 48 h
[1] = test system: ACHN renal
[2] = test system: LOX IMVI melanoma
[3] = test system: M14 melanoma
[4] = test system: NCI-H226 lung
[5] = test system: NCI-H460 lung
[6] = test system: OVCAR-4 ovarian
[7] = test system: SN12C renal
[8] = test system: SNB-75 CNS
[9] = test system: UO-31 renal
[10] = test system: SF-539 CNS

Row | Compound | TGI [1] [µM] | TGI [2] [µM] | TGI [3] [µM] | TGI [4] [µM] | TGI [5] [µM] | TGI [6] [µM] | TGI [7] [µM] | TGI [8] [µM] | TGI [9] [µM] | TGI [10] [µM] | GI50 [1] [µM] | GI50 [3] [µM] | GI50 [4] [µM] | GI50 [5] [µM] | GI50 [6] [µM] | GI50 [10] [µM] | GI50 [8] [µM] | GI50 [9] [µM] | GI50 [7] [µM] | GI50 [2] [µM]
1 | COC(=O)CCCC(=O)O | > 100 | > 100 | > 100 | > 100 | > 100 | > 100 | > 100 | > 100 | > 100 |  |  |  |  |  |  |  |  |  |  | 
2 | CC1C[C@@H]2C(=O)NC(=O)[C@@H]2c2c1c1ccccc1n2C (stereo partly drawn) |  | > 100 | > 100 | > 100 | > 100 |  | > 100 | > 100 | > 100 | > 100 |  |  |  |  |  |  |  |  |  | 
3 | COc1cc2c3c(n(CCCI)c(=O)c2cc1OC)-c1cc2c(cc1C3=O)OCO2 | 8.34 |  | > 100 | 7.88 | > 100 | > 100 |  | > 100 | > 100 | > 100 | 2.14 | 3.05 | 2.05 | 0.272 | 17.2 | 4.04 | > 100 | 2.53 |  | 
4 | O=[N+]([O-])c1cccc(C2ON2C2CCCCC2)c1 (stereo not drawn) | 32 |  | 32.4 |  | 32.5 | 38.3 | 36 | > 100 | 49.7 | 46.3 |  |  |  |  |  |  |  |  |  | 
5 | CC(C)(C)c1cc2c3c(c1)C(C(F)(F)F)(C(F)(F)F)O[Te]3(C)OC2(C(F)(F)F)C(F)(F)F | > 100 | > 100 | > 100 | > 100 | > 100 | > 100 | > 100 |  | > 100 | > 100 |  |  |  |  |  |  |  |  |  | 
6 | NCCCNCCCCN(CCCN)/[N+]([O-])=N\O | > 100 |  | > 100 | > 100 | > 100 | > 100 | > 100 | > 100 | > 100 | > 100 |  |  |  |  |  |  |  |  |  | 
7 | CN1CCN(c2ccc3nc(-c4ccc5nc(-c6ccc(OCCC(C)(C)C)cc6)[nH]c5c4)[nH]c3c2)CC1 | 22.8 |  | 6.53 | 52.2 | 3.97 | 25.5 | 15.4 | 18 | 41.8 | 26.1 | 9.2 | 2.39 | 23.8 | 2.13 | 10.1 | 11.5 | 3.46 | 21.3 | 4 | 
8 | CCCCCCCCCc1cccc(N2C(N)=NC(N)=NC2(C)C)c1 | 1.06 |  | 1.53 | 61.2 | > 100 | 4.39 | 2.33 | 25.9 | > 42.4 | 2.1 |  |  |  |  |  |  |  |  |  | 
9 | COCCCNC(=O)CC(=O)NCCCOC | > 100 |  | > 100 |  | > 100 | > 100 | > 100 |  | > 100 | > 100 |  |  |  |  |  |  |  |  |  | 
10 | Fc1ccccc1C1CC(c2ccc3ccccc3c2)=Nc2ccccc2S1 (stereo not drawn) | > 100 | > 100 | > 100 | > 100 | > 100 | > 100 | > 100 |  | > 100 | > 100 |  |  |  |  |  |  |  |  |  | 
11 | C=C1CCC2C(C)(C)CCC[C@]2(C)[C@H]1CO (stereo partly drawn) | > 100 | 70.2 | > 100 | > 100 | > 100 |  | 39.5 |  | > 100 |  | 97.9 | 71.8 | 94.5 | 59.8 |  |  |  | > 100 | 19.8 | 24.9
12 | CCCCS(=O)(=O)CCC(N)C(=O)O (stereo not drawn) | > 100 |  | > 100 | > 100 | > 100 | > 100 | > 100 | > 100 | > 100 | > 100 |  |  |  |  |  |  |  |  |  | 
13 | COC1OC(COCc2ccc(Cl)cc2)C(OCc2ccc(Cl)cc2)C1N=[N+]=[N-] (stereo not drawn) | > 100 |  | > 100 | > 100 | > 100 | > 100 | > 100 | > 100 | > 100 |  |  |  |  |  |  |  |  |  |  | 
14 | O=C(CCC(=O)C(C(=O)c1ccccc1)c1ccccc1)Nc1cccc(C(F)(F)F)c1 (stereo not drawn) | > 100 | > 100 | > 100 | > 100 | > 100 | > 100 | > 100 |  | > 100 | > 100 |  |  |  |  |  |  |  |  |  | 
15 | Cc1ccc(S(=O)(=O)OCC23CCC(CC2)C2CC23)cc1 (stereo not drawn) | > 100 | > 100 | > 100 | > 100 | > 100 | > 100 | > 100 | 40.6 | > 100 |  |  |  |  |  |  |  |  |  |  | 
16 | CS(=O)(=O)N(N(CCCl)S(=O)(=O)c1ccccc1)S(C)(=O)=O | > 100 |  | > 100 | > 100 | > 100 | > 100 | > 100 | > 100 | > 100 | > 100 |  |  |  |  |  |  |  |  |  | 
17 | Nc1nc(-c2ccccc2)nc2c1[n+]([O-])c1ccccc1[n+]2[O-] | > 100 | > 100 | > 100 | > 100 | > 100 |  | > 100 |  | > 100 | > 100 |  |  |  |  |  |  |  |  |  | 
